In general, inhibition refers to the change of the read-out against control, counted positive when it falls.

The values that follow come from US8071605B2, “Piperidine compounds for use in the treatment of bacterial infections” (AstraZeneca AB, priority 2008, dated 2011).

Each structure is given as a SMILES string.

S. aureus GyrB ATPase, sequence (P0AES4 whole entry): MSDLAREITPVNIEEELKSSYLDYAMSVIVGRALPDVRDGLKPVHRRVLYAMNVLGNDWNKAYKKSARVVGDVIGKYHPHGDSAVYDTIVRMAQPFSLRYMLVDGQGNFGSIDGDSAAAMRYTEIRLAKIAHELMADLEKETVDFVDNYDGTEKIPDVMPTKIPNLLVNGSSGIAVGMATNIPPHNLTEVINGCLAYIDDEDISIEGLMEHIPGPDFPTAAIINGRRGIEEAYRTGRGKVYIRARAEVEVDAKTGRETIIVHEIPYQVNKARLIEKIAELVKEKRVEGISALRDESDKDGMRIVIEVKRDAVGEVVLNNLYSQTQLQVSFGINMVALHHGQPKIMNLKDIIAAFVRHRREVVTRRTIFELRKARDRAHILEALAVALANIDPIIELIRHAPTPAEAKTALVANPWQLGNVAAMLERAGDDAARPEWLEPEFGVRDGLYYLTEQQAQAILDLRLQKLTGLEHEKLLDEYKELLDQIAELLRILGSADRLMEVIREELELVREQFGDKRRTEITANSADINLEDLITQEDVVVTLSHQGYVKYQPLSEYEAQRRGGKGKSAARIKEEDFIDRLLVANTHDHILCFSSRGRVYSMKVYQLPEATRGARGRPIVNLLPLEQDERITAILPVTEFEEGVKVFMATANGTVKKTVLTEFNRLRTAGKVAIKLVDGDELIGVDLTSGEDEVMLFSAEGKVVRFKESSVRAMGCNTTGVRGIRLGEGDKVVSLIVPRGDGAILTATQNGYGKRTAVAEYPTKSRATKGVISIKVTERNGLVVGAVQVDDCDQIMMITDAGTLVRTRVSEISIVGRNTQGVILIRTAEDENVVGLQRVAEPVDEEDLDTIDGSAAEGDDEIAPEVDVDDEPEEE
S. aureus GyrB ATPase, sequence (P0A0K8 whole entry): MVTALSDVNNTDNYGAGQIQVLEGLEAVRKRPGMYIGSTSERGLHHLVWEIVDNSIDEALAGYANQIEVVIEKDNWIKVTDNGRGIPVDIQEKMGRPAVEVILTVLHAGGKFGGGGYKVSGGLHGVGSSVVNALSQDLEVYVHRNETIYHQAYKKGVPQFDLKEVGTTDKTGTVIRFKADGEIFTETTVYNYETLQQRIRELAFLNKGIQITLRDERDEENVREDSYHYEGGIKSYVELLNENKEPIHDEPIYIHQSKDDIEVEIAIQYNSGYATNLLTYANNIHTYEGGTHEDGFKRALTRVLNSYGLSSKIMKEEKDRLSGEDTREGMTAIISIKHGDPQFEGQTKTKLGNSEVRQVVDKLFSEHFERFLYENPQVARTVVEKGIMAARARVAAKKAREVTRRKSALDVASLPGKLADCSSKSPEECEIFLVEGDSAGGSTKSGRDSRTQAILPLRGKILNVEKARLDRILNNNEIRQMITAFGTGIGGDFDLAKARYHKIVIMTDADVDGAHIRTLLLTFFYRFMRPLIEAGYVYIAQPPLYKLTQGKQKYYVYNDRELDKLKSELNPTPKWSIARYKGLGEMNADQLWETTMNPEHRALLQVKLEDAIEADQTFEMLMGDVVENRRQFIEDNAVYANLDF

In this assay the target is S. aureus GyrB ATPase (Staphylococcus aureus, UniProt P0A0K8). In words: S. aureus GyrB ATPase inhibition (ammonium molybdate/malachite green phosphate detection). It counts as biochemical. The following applies: compound concentration of 1 μM (unless otherwise noted). Here is the method:
E. coli GyrB ATPase Inhibition Activity: Compounds can be tested for inhibition of E. coli GyrB ATPase activity using an ammonium molybdate/malachite green-based phosphate detection assay (Lanzetta, P. A., L. J. Alvarez, P. S. Reinach, and O. A. Candia, 1979, 100: 95-97). Assays can be performed in multiwell plates in 30 μl reactions containing: 50 mM Hepes buffer pH 7.5, 75 mM ammonium acetate, 8.0 mM magnesium chloride, 0.5 mM ethylenediaminetetraacetic acid, 5% glycerol, 1 mM 1,4-Dithio-DL-threitol, 200 nM bovine serum albumin, 1.6 μg/ml sheared salmon sperm DNA, 400 pM E. coli GyrA, 400 pM E. coli GyrB, 250 μM ATP, and compound in dimethylsulfoxide. Reactions can be quenched with 30 μl of ammonium molybdate/malachite green detection reagent containing 1.2 mM malachite green hydrochloride, 8.5 mM ammonium molybdate tetrahydrate, and 1 M hydrochloric acid. Plates can be read in an absorbance plate reader at 650 nm and percent inhibition values are calculated using dimethylsulfoxide (2%)-containing reactions as 0% inhibition and EDTA-containing (2.4 μM) reactions as 100% inhibition controls. An IC50 measurement of compound potency for each compound can be determined from reactions performed in the presence of 10 different compound concentrations. E. coli Topoisomerase IV ATPase Inhibition Activity: Compounds can be tested for inhibition of E. coli topoisomerase IV ATPase activity as described above for E. coli GyrB except the 30 μl reactions contained the following: 20 mM TRIS buffer pH 8, 50 mM ammonium acetate, 8 mM magnesium chloride, 5% glycerol, 5 mM 1,4-Dithio-DL-threitol, 0.005% Brij-35, 5 μg/ml sheared salmon sperm DNA, 500 pM E. coli ParC, 500 pM E. coli ParE, 160 μM ATP, and compound in dimethylsulfoxide. An IC50 measurement of compound potency for each compound can be determined from reactions performed in the presence of 10 different compound concentrations. S. aureus GyrB ATPase Inhibition Activity: Compounds may be tested for inhibition of S. aureus GyrB ATPase activity using an ammonium molybdate/malachite green-based phosphate detection assay (Lanzetta, P. A., L. J. Alvarez, P. S. Reinach, and O. A. Candia, 1979, 100: 95-97). Assays can be performed in multiwell plates in 30 μl reactions containing: 50 mM Hepes buffer pH 7.5, 75 mM ammonium acetate, 8.0 mM magnesium chloride, 0.5 mM ethylenediaminetetraacetic acid, 5% glycerol, 1.0 mM 1,4-Dithio-DL-threitol, 200 nM bovine serum albumin, 1.0 μg/ml sheared salmon sperm DNA, 250 pM E. coli GyrA, 250 pM S. aureus GyrB, 250 μM ATP, and compound in dimethylsulfoxide. Reactions can be quenched with 30 μl of ammonium molybdate/malachite green detection reagent containing 1.2 mM malachite green hydrochloride, 8.5 mM ammonium molybdate tetrahydrate, and 1 M hydrochloric acid. Plates can be read in an absorbance plate reader at 650 nm and percent inhibition values can be calculated using dimethylsulfoxide (2%)-containing reactions as 0% inhibition and EDTA-containing (2.4 μM) reactions as 100% inhibition controls. An IC50 measurement of compound potency for each compound can be determined from reactions performed in the presence of 10 different compound concentrations.
Compounds of the invention were tested in an assay substantially similar to the assay described above for measuring the inhibition of S. aureus GyrB ATPase. Percent inhibition of S. aureus GyrB ATPase at a compound concentration of 1 μM (unless otherwise noted) is disclosed in the following table: […]
With `CO[C@H]1CN(c2nc(-c3cnc(N4CCN(CC5CCCO5)CC4)cn3)c(C(=O)O)s2)CC[C@H]1NC(=O)c1[nH]c(C)c(Cl)c1Cl` (some centres unmarked) [Example 142], the inhibition at 1 µM worked out at 103%.

Regarding `CCCO[C@H]1CN(c2nc(-c3cnccn3)c(C(=O)O)s2)CC[C@H]1NC(=O)c1cc(Cl)c(C)[nH]1` [Example 203, 2-[(3S,4R)-4-{[(4-chloro-5-methyl-1H-pyrrol-2-yl)carbonyl]amino}-3-propoxypiperidin-1-yl]-4-(pyrazin-2-yl)-1,3-thiazole-5-carboxylic acid], the inhibition at 1 µM was 108%.

Take `CCO[C@H]1CN(c2nc(-c3ncnn3C)c(C(=O)O)s2)CC[C@H]1NC(=O)c1cc(Cl)c(C)[nH]1` [Example 16]: the inhibition at 1 µM came out at 103%.

In the case of `CCO[C@H]1CN(c2nc(-c3cnc(N4CCOCC4)cn3)c(C(=O)O)s2)CC[C@H]1NC(=O)c1[nH]c(C)c(Cl)c1Cl` [Example 87], the inhibition at 1 µM came out at 109%.

In the case of `CO[C@H]1CN(c2nc(-c3nccc(N4CCN(C)CC4)n3)c(C(=O)O)s2)CC[C@H]1NC(=O)c1[nH]c(C)c(Cl)c1Cl` [Example 191, 2-[(3S,4R)-4-{[(3,4-dichloro-5-methyl-1H-pyrrol-2-yl)carbonyl]amino}-3-methoxypiperidin-1-yl]-4-[4-(4-methylpiperazin-1-yl)pyrimidin-2-yl]-1,3-thiazole-5-carboxylic acid], the inhibition at 1 µM was determined as 102%.

Turning to `CO[C@H]1CN(c2nc(-c3cnc(NCCN(C)C)cn3)c(C(=O)O)s2)CC[C@H]1NC(=O)c1[nH]c(C)c(Cl)c1Cl` [Example 132], the inhibition at 1 µM is 103%.

Consider `C=CCO[C@H]1CN(c2nc(-c3nccn3CCOC)c(C(=O)O)s2)CC[C@H]1NC(=O)c1[nH]c(C)c(Cl)c1Cl` [Example 2], for which the inhibition at 1 µM was 103%.

Regarding `CO[C@H]1CN(c2nc(-c3nccc(N4CCOCC4)n3)c(C(=O)O)s2)CC[C@H]1NC(=O)c1[nH]c(C)c(Cl)c1Cl` [Example 190, 2-[(3S,4R)-4-{[(3,4-dichloro-5-methyl-1H-pyrrol-2-yl)carbonyl]amino}-3-methoxypiperidin-1-yl]-4-[4-(morpholin-4-yl)pyrimidin-2-yl]-1,3-thiazole-5-carboxylic acid], the inhibition at 1 µM came to 100%.

With `CO[C@H]1CN(c2nc(-c3cnc(OCCN4CCCC4)cn3)c(C(=O)O)s2)CC[C@H]1NC(=O)c1[nH]c(C)c(Cl)c1Cl` [Example 62, 2-[(3S,4R)-4-{[(3,4-dichloro-5-methyl-1H-pyrrol-2-yl)carbonyl]amino}-3-methoxypiperidin-1-yl]-4-{5-[2-(pyrrolidin-1-yl)ethoxy]pyrazin-2-yl}-1,3-thiazole-5-carboxylic acid], the inhibition at 1 µM was found to be 98%.

For the compound `CCO[C@H]1CN(c2nc(-c3cnc(N4CCN(C)CC4)cn3)c(C(=O)O)s2)CC[C@H]1NC(=O)c1[nH]c(C)c(Cl)c1Cl` [Example 88], the inhibition at 1 µM was found to be 107%.

Consider `CCO[C@H]1CN(c2nc(-c3cnc(N4CCN(CC5CCCCC5)CC4)cn3)c(C(=O)O)s2)CC[C@H]1NC(=O)c1[nH]c(C)c(Cl)c1Cl` [Example 98], for which the inhibition at 1 µM is 116%.

For `CCCO[C@H]1CN(c2nc(-c3cnccn3)c(C(=O)O)s2)CC[C@H]1NC(=O)c1[nH]c(C)c(Cl)c1C#N` [Example 211, 2-[(3S,4R)-4-{[(4-chloro-3-cyano-5-methyl-1H-pyrrol-2-yl)carbonyl]amino}-3-propoxypiperidin-1-yl]-4-(pyrazin-2-yl)-1,3-thiazole-5-carboxylic acid], the inhibition at 1 µM is 107%.

As to `CO[C@H]1CN(c2nc(-c3cnc(N4CCN(CCO)CC4)cn3)c(C(=O)O)s2)CC[C@H]1NC(=O)c1[nH]c(C)c(Cl)c1Cl` [Example 141], the inhibition at 1 µM was determined as 103%.

Turning to `CCO[C@H]1CN(c2nc(-c3cnc(N4CCN(C(CC)CC)CC4)cn3)c(C(=O)O)s2)CC[C@H]1NC(=O)c1[nH]c(C)c(Cl)c1Cl` [Example 99], the inhibition at 1 µM came out at 106%.

`CCO[C@H]1CN(c2nc(-c3cnc(N4CCCCC4)cn3)c(C(=O)O)s2)CC[C@H]1NC(=O)c1[nH]c(C)c(Cl)c1Cl` [Example 86, 2-[(3S,4R)-4-{[(3,4-dichloro-5-methyl-1H-pyrrol-2-yl)carbonyl]amino}-3-ethoxypiperidin-1-yl]-4-[5-(piperidin-1-yl)pyrazin-2-yl]-1,3-thiazole-5-carboxylic acid]: the inhibition at 1 µM was determined as 105%.

As to `Cc1[nH]c(C(=O)N[C@@H]2CCN(c3nc(-c4cnc(N5CCCCC5)cn4)c(C(=O)O)s3)C[C@@H]2C)c(Cl)c1Cl` [Example 165, 2-[(3S,4R)-4-{[(3,4-dichloro-5-methyl-1H-pyrrol-2-yl)carbonyl]amino}-3-methylpiperidin-1-yl]-4-[5-(piperidin-1-yl)pyrazin-2-yl]-1,3-thiazole-5-carboxylic acid], the inhibition at 1 µM came out at 107%.

For the compound `CCCO[C@H]1CN(c2nc(-c3nccn3CCOC)c(C(=O)O)s2)CC[C@H]1NC(=O)c1cc(Cl)c(C)[nH]1` [Example 201, 2-[(3S,4R)-4-{[(4-chloro-5-methyl-1H-pyrrol-2-yl)carbonyl]amino}-3-propoxypiperidin-1-yl]-4-[1-(2-methoxyethyl)-1H-imidazol-2-yl]-1,3-thiazole-5-carboxylic acid], the inhibition at 1 µM is 105%.

Take `Cc1[nH]c(C(=O)N[C@@H]2CCN(c3nc(-c4cnc(N5CCN(CC6CCCN(C)C6)CC5)cn4)c(C(=O)O)s3)C[C@@H]2C)c(Cl)c1Cl` (stereo partly drawn) [Example 177, 2-[(3S,4R)-4-{[(3,4-dichloro-5-methyl-1H-pyrrol-2-yl)carbonyl]amino}-3-methylpiperidin-1-yl]-4-(5-{4-[(1-methylpiperidin-3-yl)methyl]piperazin-1-yl}pyrazin-2-yl)-1,3-thiazole-5-carboxylic acid]: the inhibition at 1 µM turned out to be 107%.

Regarding `Cc1[nH]c(C(=O)N[C@@H]2CCN(c3nc(-c4cnc(N5CCOCC5)cn4)c(C(=O)O)s3)C[C@@H]2C)c(Cl)c1Cl` [Example 166, 2-[(3S,4R)-4-{[(3,4-dichloro-5-methyl-1H-pyrrol-2-yl)carbonyl]amino}-3-methylpiperidin-1-yl]-4-[5-(morpholin-4-yl)pyrazin-2-yl]-1,3-thiazole-5-carboxylic acid], the inhibition at 1 µM came to 110%.

In the case of `CCO[C@H]1CN(c2nc(-c3ncnn3C)c(C(=O)O)s2)CC[C@H]1NC(=O)c1[nH]c(C)c(Cl)c1C#N` [Example 12], the inhibition at 1 µM turned out to be 106%.

Regarding `CCO[C@H]1CN(c2nc(-c3nccn3CCOC)c(C(=O)O)s2)CC[C@H]1NC(=O)c1[nH]c(C)c(Cl)c1Cl` [Example 9], the inhibition at 1 µM came to 98%.

On to `COCC(COC)Nc1cnc(-c2nc(N3CC[C@@H](NC(=O)c4[nH]c(C)c(Cl)c4Cl)[C@@H](OC)C3)sc2C(=O)O)cn1` [Example 129], for which the inhibition at 1 µM came to 103%.

For the compound `CCO[C@H]1CN(c2nc(-c3cnc(NCCN(C)C)cn3)c(C(=O)O)s2)CC[C@H]1NC(=O)c1[nH]c(C)c(Cl)c1Cl` [Example 94], the inhibition at 1 µM was 104%.

With `CO[C@H]1CN(c2nc(-c3nccc(N4CCCCC4)n3)c(C(=O)O)s2)CC[C@H]1NC(=O)c1[nH]c(C)c(Cl)c1Cl` [Example 189, 2-[(3S,4R)-4-{[(3,4-dichloro-5-methyl-1H-pyrrol-2-yl)carbonyl]amino}-3-methoxypiperidin-1-yl]-4-[4-(piperidin-1-yl)pyrimidin-2-yl]-1,3-thiazole-5-carboxylic acid], the inhibition at 1 µM is 106%.

Take `C=CCO[C@H]1CN(c2nc(-c3ncnn3C)c(C(=O)O)s2)CC[C@H]1NC(=O)c1[nH]c(C)c(Cl)c1C#N` [Example 5]: the inhibition at 1 µM came to 5%.

For the compound `CCCO[C@H]1CN(c2nc(-c3ncccc3F)c(C(=O)O)s2)CC[C@H]1NC(=O)c1cc(Cl)c(C)[nH]1` [Example 202, 2-[(3S,4R)-4-{[(4-chloro-5-methyl-1H-pyrrol-2-yl)carbonyl]amino}-3-propoxypiperidin-1-yl]-4-(3-fluoropyridin-2-yl)-1,3-thiazole-5-carboxylic acid], the inhibition at 1 µM was 103%.
